The structures appear in SMILES notation. Read-outs that look alike come from different tables or passages of the source.

The assay has as its target human TRPA1 channel (Homo sapiens (Human), UniProt O75762). The experiment in a line: hTRPA1 CHO Ca2+ FLIPR Tetra assay, block of cinnamaldehyde induced calcium influx. The assay is classed as cell-based. The note with it: CHO cells expressing TRPA1, Hill coefficient fixed to 1.5. A digest of the protocol:
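IC50 values come from fixed-Hill fits of inhibition of cinnamaldehyde-induced (about EC50 level) calcium influx measured by FLIPR Tetra. Before agonist, TRPA1-expressing CHO cells loaded with calcium indicator were exposed to compound for 10 or 90 min at room temperature in HEPES-buffered HBSS, pH 7.4, with 0.02% BSA.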

Where [1] appears, read: read-out: hTRPA1 IC50 (10 min), compounds incubated 10 minutes at room temperature before cinnamaldehyde agonist.
The mark [2] stands for this setting: read-out: hTRPA1 IC50 (90 min), compounds incubated 90 minutes at room temperature before cinnamaldehyde agonist.

human TRPA1 channel, sequence (O75762 whole entry): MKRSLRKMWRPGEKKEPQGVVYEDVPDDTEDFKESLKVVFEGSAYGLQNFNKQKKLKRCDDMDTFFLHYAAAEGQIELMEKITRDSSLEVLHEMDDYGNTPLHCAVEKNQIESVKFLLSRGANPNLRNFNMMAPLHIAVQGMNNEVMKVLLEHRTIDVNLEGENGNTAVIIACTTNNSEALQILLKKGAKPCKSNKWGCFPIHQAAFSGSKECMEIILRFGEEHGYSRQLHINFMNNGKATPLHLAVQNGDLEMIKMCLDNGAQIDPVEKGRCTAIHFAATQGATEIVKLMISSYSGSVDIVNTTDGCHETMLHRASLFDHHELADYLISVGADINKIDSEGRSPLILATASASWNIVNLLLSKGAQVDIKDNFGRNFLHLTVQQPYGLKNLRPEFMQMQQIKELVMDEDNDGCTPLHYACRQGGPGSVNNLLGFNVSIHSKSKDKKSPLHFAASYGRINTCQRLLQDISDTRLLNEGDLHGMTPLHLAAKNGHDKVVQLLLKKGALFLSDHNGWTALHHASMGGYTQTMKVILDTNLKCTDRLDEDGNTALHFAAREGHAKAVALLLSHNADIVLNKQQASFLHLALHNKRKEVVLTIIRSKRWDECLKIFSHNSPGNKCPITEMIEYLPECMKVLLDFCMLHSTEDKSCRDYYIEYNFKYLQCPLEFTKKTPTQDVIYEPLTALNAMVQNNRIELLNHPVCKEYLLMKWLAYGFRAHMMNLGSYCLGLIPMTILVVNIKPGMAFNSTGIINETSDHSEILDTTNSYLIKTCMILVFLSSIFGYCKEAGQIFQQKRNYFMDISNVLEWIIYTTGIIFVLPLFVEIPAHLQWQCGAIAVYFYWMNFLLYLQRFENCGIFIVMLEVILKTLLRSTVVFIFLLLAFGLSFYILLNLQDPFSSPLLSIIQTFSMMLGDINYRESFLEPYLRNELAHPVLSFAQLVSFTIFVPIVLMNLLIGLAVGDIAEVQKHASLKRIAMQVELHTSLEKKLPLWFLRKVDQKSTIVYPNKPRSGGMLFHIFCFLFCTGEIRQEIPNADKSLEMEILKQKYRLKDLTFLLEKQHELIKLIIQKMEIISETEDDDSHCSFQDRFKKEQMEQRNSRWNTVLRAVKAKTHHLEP

In the case of `Cn1cnc2ncn(Cc3nc([C@@H]4[C@H]5C=C(c6ccc(F)c(F)c6F)C[C@H]54)no3)c(=O)c21` [Example Compound 242, 7-methyl-1-[[3-[(1R,5R,6S)-3-(2,3,4-trifluorophenyl)-6-bicyclo[3.1.0]hex-2-enyl]-1,2,4-oxadiazol-5-yl]methyl]purin-6-one], the IC50 under setting [1] was 19.1 nM and the concentration for half-maximal inhibition (IC50) under setting [2] stood at 6.3 nM.

Take `Cn1c(NC2COC2)nc2ncn(Cc3nc([C@H]4[C@@H]5C=C(c6ccccc6)C[C@@H]54)no3)c(=O)c21` [Example Compound 243, 7-methyl-8-(oxetan-3-ylamino)-1-[[3-[(1S,5S,6R)-3-phenyl-6-bicyclo[3.1.0]hex-2-enyl]-1,2,4-oxadiazol-5-yl]methyl]purin-6-one]: the IC50 reads like this: under setting [1], 101 nM; under setting [2], 45 nM.

With `CN(C)C(=O)CNc1nc2ncn(Cc3nc([C@H]4[C@@H]5C=C(c6ccccc6)C[C@@H]54)no3)c(=O)c2n1C` [Example Compound 244, N,N-dimethyl-2-[[7-methyl-6-oxo-1-[[3-[(1S,5S,6R)-3-phenyl-6-bicyclo[3.1.0]hex-2-enyl]-1,2,4-oxadiazol-5-yl]methyl]purin-8-yl]amino]acetamide], the IC50 reads like this: under setting [1], 68.7 nM; under setting [2], 26 nM.

Consider `Cn1c(NC2CCOCC2)nc2ncn(Cc3nc([C@H]4[C@@H]5C=C(c6ccccc6)C[C@@H]54)no3)c(=O)c21` [Example Compound 245, 7-methyl-1-[[3-[(1S,5S,6R)-3-phenyl-6-bicyclo[3.1.0]hex-2-enyl]-1,2,4-oxadiazol-5-yl]methyl]-8-(tetrahydropyran-4-ylamino)purin-6-one], for which the IC50 came to 79.9 nM under setting [1] and 43 nM under setting [2].

Consider `CCNc1nc2ncn(Cc3nc([C@H]4[C@@H]5C=C(c6ccccc6)C[C@@H]54)no3)c(=O)c2n1C` [Example Compound 246, 8-(ethylamino)-7-methyl-1-[[3-[(1S,5S,6R)-3-phenyl-6-bicyclo[3.1.0]hex-2-enyl]-1,2,4-oxadiazol-5-yl]methyl]purin-6-one], for which the IC50 under setting [1] amounted to 53.9 nM and the IC50 under setting [2] came to 29 nM.

With `Cn1cnc2ncn(Cc3nc([C@H]4[C@@H]5CN(c6ccc(C#N)cc6F)C[C@@H]54)no3)c(=O)c21` [Example Compound 247, 3-fluoro-4-[(1S,5R)-6-[5-[(7-methyl-6-oxo-purin-1-yl)methyl]-1,2,4-oxadiazol-3-yl]-3-azabicyclo[3.1.0]hexan-3-yl]benzonitrile], the IC50 reads like this: under setting [1], 57.9 nM; under setting [2], 23 nM.

`Cn1cnc2ncn(Cc3nc([C@@H]4[C@H]5C=C(c6ccccc6)[C@@H](O)[C@H]54)no3)c(=O)c21` [Example Compound 250, 7-methyl-1-[[3-[(1R,4S,5R,6R)-4-hydroxy-3-phenyl-6-bicyclo[3.1.0]hex-2-enyl]-1,2,4-oxadiazol-5-yl]methyl]purin-6-one]: the IC50 is, setting by setting: under setting [1], 312 nM; under setting [2], 40 nM.

For `Cn1cnc2ncn(Cc3nc([C@H]4[C@@H]5C=C(c6cc(F)c(F)c(F)c6)C[C@@H]54)no3)c(=O)c21` [Example Compound 251, 7-methyl-1-[[3-[(1S,5S,6R)-3-(3,4,5-trifluorophendyl)-6-bicyclo[3.1.0]hex-2-enyl]-1,2,4-oxadiazol-5-yl]methyl]purin-6-one], the IC50 under setting [1] turned out to be 14.9 nM and the IC50 under setting [2] came out at 2 nM.

As to `Cn1c(NCCO)nc2ncn(Cc3nc([C@H]4[C@@H]5C=C(c6ccccc6)C[C@@H]54)no3)c(=O)c21` [Example Compound 252, 8-(2-hydroxyethylamino)-7-methyl-1-[[3-[(1S,5S,6R)-3-phenyl-6-bicyclo[3.1.0]hex-2-enyl]-1,2,4-oxadiazol-5-yl]methyl]purin-6-one], the IC50 is 304 nM under setting [1] and 68 nM under setting [2].

In the case of `Cc1cnn2ncn(Cc3nc([C@H]4C[C@](F)(c5cccc(Cl)c5)C4)no3)c(=O)c12` [Example Compound 253, 3-[[3-[trans-3-(3-chlorophenyl)-3-fluoro-cyclobutyl]-1,2,4-oxadiazol-5-yl]methyl]-5-methyl-pyrazolo[5,1-f][1,2,4]triazin-4-one], the IC50 under setting [1] turned out to be 43.5 nM and the IC50 under setting [2] worked out at 31 nM.

Take `Cn1cnc2ncn(Cc3nc([C@@H]4[C@H]5C=C(c6cccc(F)c6F)C[C@H]54)no3)c(=O)c21` [Example Compound 254, 7-methyl-1-[[3-[(1R,5R,6S)-3-(2,3-difluorophenyl)-6-bicyclo[3.1.0]hex-2-enyl]-1,2,4-oxadiazol-5-yl]methyl]purin-6-one]: the concentration for half-maximal inhibition (IC50) is, setting by setting: (read-out: hTRPA1 IC50 (10 min), compounds incubated 10 minutes at room temperature before cinnamaldehyde agonist, listed as 254) 12.3 nM; (read-out: hTRPA1 IC50 (90 min), compounds incubated 90 minutes at room temperature before cinnamaldehyde agonist, listed as 254) 2.1 nM.

On to `Cn1c(N)nc2ncn(Cc3nc([C@H]4[C@@H]5C=C(c6ccccc6)C[C@@H]54)no3)c(=O)c21` [Example Compound 255, 8-amino-7-methyl-1-[[3-[(1S,5S,6R)-3-phenyl-6-bicyclo[3.1.0]hex-2-enyl]-1,2,4-oxadiazol-5-yl]methyl]purin-6-one], for which the IC50 is, setting by setting: under setting [1], 33.3 nM; under setting [2], 3.8 nM.

For `Cn1cnc2ncn(Cc3nc([C@H]4[C@@H]5C=C(c6ccc(C#N)cc6)C[C@@H]54)no3)c(=O)c21` [Example Compound 256, 4-[(1S,5S,6R)-6-[5-[(7-methyl-6-oxo-purin-1-yl)methyl]-1,2,4-oxadiazol-3-yl]-3-bicyclo[3.1.0]hex-2-enyl]benzonitrile], the IC50 under setting [1] was found to be 21.7 nM and the IC50 under setting [2] turned out to be 6.6 nM.

Turning to `Cn1cnc2ncn(Cc3nc([C@H]4C[C@H](Cc5cccc(Cl)c5)C4)no3)c(=O)c21` [Example Compound 257, 1-[[3-[trans-3-[(3-chlorophenyl)methyl]cyclobutyl]-1,2,4-oxadiazol-5-yl]methyl]-7-methyl-purin-6-one], the IC50 is, setting by setting: under setting [1], 16.6 nM; under setting [2], 19 nM.

As to `Cn1cnc2ncn(Cc3nc([C@H]4[C@@H]5CN(c6cc(F)c(C#N)c(F)c6)C[C@@H]54)no3)c(=O)c21` [Example Compound 258, 2,6-difluoro-4-[(1S,5R)-6-[5-[(7-methyl-6-oxo-purin-1-yl)methyl]-1,2,4-oxadiazol-3-yl]-3-azabicyclo[3.1.0]hexan-3-yl]benzonitrile], the IC50 under setting [1] stood at 78.2 nM and the half-maximal inhibitory concentration (IC50) under setting [2] was 18 nM.

On to `Cn1cnc2nnn(Cc3nc([C@H]4[C@@H]5C=C(c6ccccc6)C[C@@H]54)no3)c(=O)c21` [Example Compound 259, 5-methyl-3-[[3-[(1S,5S,6R)-3-phenyl-6-bicyclo[3.1.0]hex-2-enyl]-1,2,4-oxadiazol-5-yl]methyl]imidazo[4,5-d]triazin-4-one], for which the IC50 under setting [1] is 25.1 nM and the IC50 under setting [2] was found to be 16 nM.

In the case of `COCCNc1nc2ncn(Cc3nc([C@@H]4[C@H]5C=C(c6ccccc6)C[C@H]54)no3)c(=O)c2n1C` [Example Compound 260, 8-(2-methoxyethylamino)-7-methyl-1-[[3-[(1R,5R,6S)-3-phenyl-6-bicyclo[3.1.0]hex-2-enyl]-1,2,4-oxadiazol-5-yl]methyl]purin-6-one], the IC50 reads like this: under setting [1], 42.6 nM; under setting [2], 35 nM.

As for `Nc1ccc2c(=O)n(Cc3nc([C@H]4[C@@H]5CN(c6cccc(F)c6)C[C@@H]54)no3)cnc2n1` [Example Compound 261, 7-amino-3-[[3-[(1R,5S)-3-(3-fluorophenyl)-3-azabicyclo[3.1.0]hexan-6-yl]-1,2,4-oxadiazol-5-yl]methyl]pyrido[2,3-d]pyrimidin-4-one], the IC50 by setting is: under setting [1], 9.73 nM; under setting [2], 4.3 nM.

Take `CNc1nc2ncn(Cc3nc([C@@H]4[C@H]5C=C(c6ccccc6)C[C@H]54)no3)c(=O)c2n1C` [Example Compound 262, 7-methyl-8-(methylamino)-1-[[3-[(1R,5R,6S)-3-phenyl-6-bicyclo[3.1.0]hex-2-enyl]-1,2,4-oxadiazol-5-yl]methyl]purin-6-one]: the concentration for half-maximal inhibition (IC50) under setting [1] came to 33.5 nM and the IC50 under setting [2] came to 14 nM.

Consider `Cn1c(Cl)nc2ncn(Cc3nc([C@@H]4[C@H]5C=C(c6ccccc6)C[C@H]54)no3)c(=O)c21` [Example Compound 263, 8-chloro-7-methyl-1-[[3-[(1R,5R,6S)-3-phenyl-6-bicyclo[3.1.0]hex-2-enyl]-1,2,4-oxadiazol-5-yl]methyl]purin-6-one], for which the IC50 was determined as 15.8 nM under setting [1] and 6.5 nM under setting [2].

Regarding `Cn1cnc2ncn(Cc3nc([C@@H]4[C@H]5C=C(c6ccc7c(cnn7C)c6)C[C@H]54)no3)c(=O)c21` [Example Compound 264, 7-methyl-1-[[3-[(1R,5R,6S)-3-(1-methylindazol-5-yl)-6-bicyclo[3.1.0]hex-2-enyl]-1,2,4-oxadiazol-5-yl]methyl]purin-6-one], the IC50 reads like this: under setting [1], 29 nM; under setting [2], 14 nM.

For `Cn1c(=O)ccc2ncn(Cc3nc([C@@H]4[C@H]5C=C(c6ccccc6)C[C@H]54)no3)c(=O)c21` [Example Compound 265, 5-methyl-3-[[3-[(1R,5R,6S)-3-phenyl-6-bicyclo[3.1.0]hex-2-enyl]-1,2,4-oxadiazol-5-yl]methyl]pyrido[3,2-d]pyrimidine-3,6-dione], the 50% inhibitory concentration (IC50) is, setting by setting: under setting [1], 16.1 nM; under setting [2], 12 nM.

In the case of `N#Cc1ccc2c(=O)n(Cc3nc([C@@H]4[C@H]5C=C(c6ccccc6)C[C@H]54)no3)cnc2n1` [Example Compound 266, 4-oxo-3-[[3-[(1R,5R,6S)-3-phenyl-6-bicyclo[3.1.0]hex-2-enyl]-1,2,4-oxadiazol-5-yl]methyl]pyrido[2,3-d]pyrimidine-7-carbonitrile], the IC50 is, setting by setting: under setting [1], 54.6 nM; under setting [2], 39 nM.

As a reminder, the IC50 is the concentration that inhibits the measured activity by half.

The record behind these values is patent US10711004B2 (Genentech, Inc., priority 2018, dated 2020).
